{
  "source": "the supplement of paper PMC10733146",
  "test_in_all_cases": "viability relative to DMSO control (fraction); higher = less drug effect (more viable cells)",
  "conditions_in_all_cases": "48 h",
  "key": {"[1]": {"test_system": "primary AML patient cells (S079)", "outline": "(§1)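 Using 384-well plates with compounds already plated at five concentrations, one well per concentration, 4 × 10^4 primary mononuclear tumour cells were added per well. Cells were Ficoll-isolated from blood or bone marrow or came from processed lymph node, fresh or cryopreserved. They were kept for 48 h at 37 °C and 5% CO2 in RPMI-1640 supplemented with penicillin/streptomycin, L-glutamine and human serum, and viability was read as CellTiter-Glo luminescence relative to the median of 16 inner DMSO wells.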"}, "[2]": {"test_system": "primary MCL patient cells (S053)", "outline": "as §1"}, "[3]": {"test_system": "primary MCL patient cells (S063)", "outline": "as §1"}, "[4]": {"test_system": "primary AML patient cells (S056)", "outline": "as §1"}, "[5]": {"test_system": "primary AML patient cells (S012)", "outline": "as §1"}, "[6]": {"test_system": "primary AML patient cells (S006)", "outline": "as §1"}, "[7]": {"test_system": "primary MCL patient cells (S041)", "outline": "as §1"}, "[8]": {"test_system": "primary AML patient cells (S072)", "outline": "as §1"}, "[9]": {"test_system": "primary AML patient cells (S060)", "outline": "as §1"}, "[10]": {"test_system": "primary CLL patient cells (S031)", "outline": "as §1"}, "[11]": {"test_system": "primary AML patient cells (S009)", "outline": "as §1"}, "[12]": {"test_system": "primary ALL patient cells (S088)", "outline": "as §1"}, "[13]": {"test_system": "primary AML patient cells (S085)", "outline": "as §1"}, "[14]": {"test_system": "primary CLL patient cells (S043)", "outline": "as §1"}, "[15]": {"test_system": "primary DLBCL patient cells (S082)", "outline": "as §1"}, "[16]": {"test_system": "primary AML patient cells (S017)", "outline": "as §1"}, "[17]": {"test_system": "primary FL patient cells (S087)", "outline": "as §1"}, "[18]": {"test_system": "primary B-PLL patient cells (S016)", "outline": "as §1"}, "[19]": {"test_system": "primary AML patient cells (S071)", "outline": "as §1"}, "[20]": {"test_system": "primary BL patient cells (S005)", "outline": "as §1"}},
  "data": [
    {"smiles": "Cc1cc(Nc2ncc(Cl)c(Nc3ccccc3S(=O)(=O)C(C)C)n2)c(OC(C)C)cc1C1CCNCC1", "note": "[Ceritinib]", "values": [
      {"measurement": "viability", "setting": "[1]; 0.024 µM", "result": 0.964},
      {"measurement": "viability", "setting": "[1]; 0.12 µM", "result": 0.933},
      {"measurement": "viability", "setting": "[1]; 0.6 µM", "result": 0.844},
      {"measurement": "viability", "setting": "[1]; 3 µM", "result": 0.738},
      {"measurement": "viability", "setting": "[1]; 15 µM", "result": 0.0169},
      {"measurement": "viability", "setting": "[2]; 0.024 µM", "result": 0.986},
      {"measurement": "viability", "setting": "[2]; 0.12 µM", "result": 1.01},
      {"measurement": "viability", "setting": "[2]; 0.6 µM", "result": 1},
      {"measurement": "viability", "setting": "[2]; 3 µM", "result": 0.832},
      {"measurement": "viability", "setting": "[2]; 15 µM", "result": 0.0213},
      {"measurement": "viability", "setting": "[3]; 0.024 µM", "result": 0.967},
      {"measurement": "viability", "setting": "[3]; 0.12 µM", "result": 0.946},
      {"measurement": "viability", "setting": "[3]; 0.6 µM", "result": 0.957},
      {"measurement": "viability", "setting": "[3]; 3 µM", "result": 0.892},
      {"measurement": "viability", "setting": "[3]; 15 µM", "result": 0.0187},
      {"measurement": "viability", "setting": "[4]; 0.024 µM", "result": 0.954},
      {"measurement": "viability", "setting": "[4]; 0.12 µM", "result": 1.41},
      {"measurement": "viability", "setting": "[4]; 0.6 µM", "result": 0.654},
      {"measurement": "viability", "setting": "[4]; 3 µM", "result": 0.375},
      {"measurement": "viability", "setting": "[4]; 15 µM", "result": 0.0154},
      {"measurement": "viability", "setting": "[5]; 0.024 µM", "result": 1.05},
      {"measurement": "viability", "setting": "[5]; 0.12 µM", "result": 1.03},
      {"measurement": "viability", "setting": "[5]; 0.6 µM", "result": 1.06},
      {"measurement": "viability", "setting": "[5]; 3 µM", "result": 1.01},
      {"measurement": "viability", "setting": "[5]; 15 µM", "result": 0.0296},
      {"measurement": "viability", "setting": "[6]; 0.024 µM", "result": 0.938},
      {"measurement": "viability", "setting": "[6]; 0.12 µM", "result": 0.924},
      {"measurement": "viability", "setting": "[6]; 0.6 µM", "result": 0.773},
      {"measurement": "viability", "setting": "[6]; 3 µM", "result": 0.53},
      {"measurement": "viability", "setting": "[6]; 15 µM", "result": 0.0233},
      {"measurement": "viability", "setting": "[7]; 0.024 µM", "result": 0.966},
      {"measurement": "viability", "setting": "[7]; 0.12 µM", "result": 0.966},
      {"measurement": "viability", "setting": "[7]; 0.6 µM", "result": 0.9},
      {"measurement": "viability", "setting": "[7]; 3 µM", "result": 0.654},
      {"measurement": "viability", "setting": "[7]; 15 µM", "result": 0.0173},
      {"measurement": "viability", "setting": "[8]; 0.024 µM", "result": 0.954},
      {"measurement": "viability", "setting": "[8]; 0.12 µM", "result": 0.939},
      {"measurement": "viability", "setting": "[8]; 0.6 µM", "result": 0.79},
      {"measurement": "viability", "setting": "[8]; 3 µM", "result": 0.582},
      {"measurement": "viability", "setting": "[8]; 15 µM", "result": 0.0168},
      {"measurement": "viability", "setting": "[9]; 0.024 µM", "result": 1},
      {"measurement": "viability", "setting": "[9]; 0.12 µM", "result": 0.981},
      {"measurement": "viability", "setting": "[9]; 0.6 µM", "result": 1.03},
      {"measurement": "viability", "setting": "[9]; 3 µM", "result": 0.947},
      {"measurement": "viability", "setting": "[9]; 15 µM", "result": 0.0203},
      {"measurement": "viability", "setting": "[10]; 0.024 µM", "result": 1},
      {"measurement": "viability", "setting": "[10]; 0.12 µM", "result": 0.899},
      {"measurement": "viability", "setting": "[10]; 0.6 µM", "result": 0.838},
      {"measurement": "viability", "setting": "[10]; 3 µM", "result": 0.628},
      {"measurement": "viability", "setting": "[10]; 15 µM", "result": 0.018},
      {"measurement": "viability", "setting": "[11]; 0.024 µM", "result": 0.937},
      {"measurement": "viability", "setting": "[11]; 0.12 µM", "result": 0.903},
      {"measurement": "viability", "setting": "[11]; 0.6 µM", "result": 0.823},
      {"measurement": "viability", "setting": "[11]; 3 µM", "result": 0.754},
      {"measurement": "viability", "setting": "[11]; 15 µM", "result": 0.0293},
      {"measurement": "viability", "setting": "[12]; 0.024 µM", "result": 0.923},
      {"measurement": "viability", "setting": "[12]; 0.12 µM", "result": 0.788},
      {"measurement": "viability", "setting": "[12]; 0.6 µM", "result": 0.558},
      {"measurement": "viability", "setting": "[12]; 3 µM", "result": 0.35},
      {"measurement": "viability", "setting": "[12]; 15 µM", "result": 0.0155},
      {"measurement": "viability", "setting": "[13]; 0.024 µM", "result": 1.02},
      {"measurement": "viability", "setting": "[13]; 0.12 µM", "result": 0.875},
      {"measurement": "viability", "setting": "[13]; 0.6 µM", "result": 0.62},
      {"measurement": "viability", "setting": "[13]; 3 µM", "result": 0.49},
      {"measurement": "viability", "setting": "[13]; 15 µM", "result": 0.0171},
      {"measurement": "viability", "setting": "[14]; 0.024 µM", "result": 1.05},
      {"measurement": "viability", "setting": "[14]; 0.12 µM", "result": 0.943},
      {"measurement": "viability", "setting": "[14]; 0.6 µM", "result": 0.928},
      {"measurement": "viability", "setting": "[14]; 3 µM", "result": 0.684},
      {"measurement": "viability", "setting": "[14]; 15 µM", "result": 0.0198},
      {"measurement": "viability", "setting": "[15]; 0.024 µM", "result": 1.05},
      {"measurement": "viability", "setting": "[15]; 0.12 µM", "result": 1.04},
      {"measurement": "viability", "setting": "[15]; 0.6 µM", "result": 0.617},
      {"measurement": "viability", "setting": "[15]; 3 µM", "result": 0.321},
      {"measurement": "viability", "setting": "[15]; 15 µM", "result": 0.0186},
      {"measurement": "viability", "setting": "[16]; 0.024 µM", "result": 0.958},
      {"measurement": "viability", "setting": "[16]; 0.12 µM", "result": 0.963},
      {"measurement": "viability", "setting": "[16]; 0.6 µM", "result": 0.995},
      {"measurement": "viability", "setting": "[16]; 3 µM", "result": 0.773},
      {"measurement": "viability", "setting": "[16]; 15 µM", "result": 0.0225},
      {"measurement": "viability", "setting": "[17]; 0.024 µM", "result": 0.968},
      {"measurement": "viability", "setting": "[17]; 0.12 µM", "result": 0.981},
      {"measurement": "viability", "setting": "[17]; 0.6 µM", "result": 0.883},
      {"measurement": "viability", "setting": "[17]; 3 µM", "result": 0.734},
      {"measurement": "viability", "setting": "[17]; 15 µM", "result": 0.0188},
      {"measurement": "viability", "setting": "[18]; 0.024 µM", "result": 0.945},
      {"measurement": "viability", "setting": "[18]; 0.12 µM", "result": 0.832},
      {"measurement": "viability", "setting": "[18]; 0.6 µM", "result": 0.743},
      {"measurement": "viability", "setting": "[18]; 3 µM", "result": 0.555},
      {"measurement": "viability", "setting": "[18]; 15 µM", "result": 0.0198},
      {"measurement": "viability", "setting": "[19]; 0.024 µM", "result": 0.865},
      {"measurement": "viability", "setting": "[19]; 0.12 µM", "result": 0.781},
      {"measurement": "viability", "setting": "[19]; 0.6 µM", "result": 0.476},
      {"measurement": "viability", "setting": "[19]; 3 µM", "result": 0.174},
      {"measurement": "viability", "setting": "[19]; 15 µM", "result": 0.0165},
      {"measurement": "viability", "setting": "[20]; 0.024 µM", "result": 1.05},
      {"measurement": "viability", "setting": "[20]; 0.12 µM", "result": 0.992},
      {"measurement": "viability", "setting": "[20]; 0.6 µM", "result": 0.944},
      {"measurement": "viability", "setting": "[20]; 3 µM", "result": 0.669},
      {"measurement": "viability", "setting": "[20]; 15 µM", "result": 0.0199}
    ]}
  ]
}
